Laboratory results from patent US20210023089A1, “Compositions Useful for Treating Herpes Simplex Keratitis, and Methods Using Same” (priority 2013, published 2021).

Key:
HSV-1 [1] = experiment: Plaque assay of supernatants from HSV-1 infected HCE cells; type: cell-based, HSV-1 (KOS strain); details: MOI 0.1, 10 μM, vs controls
Experimental: All cells were cultured at 37° C. and 5% CO2, and supplemented with 100 U/ml penicillin and 100 μg/ml streptomycin. Human corneal epithelial cells immortalized with hTERT (hTCEpi; Bahassi et al., 2008, Oncogene 27:3977-3985) were grown in complete KGM-2 medium. Human corneal epithelial cells immortalized with SV40 large T antigen (HCE; Araski-Sasaki et al., 1995, Invest. Ophthalmol. Visual Sci. 36:614-621), as well as African green monkey kidney fibroblasts (CV-1; Jensen et al., 1964, Proc. Natl. Acad. Sci. USA 52:53-59), were grown in DMEM medium supplemented with 10% FBS. KOS strain (Smith, Proc. Soc. Exp. Biol. Med. Soc. Exp. Biol. Med. 115:814-816) of HSV-1 was used in all infections. All viral stocks were titered on CV-1 monolayers.
Cells were grown in 6-well plates and used in experiments at […] confluence. Drug treatments were administered 45 min prior to infection and continued for the entire duration of each experiment. Unless indicated otherwise, Chk2 inhibitor II (>98% purity by HPLC) was used at 10 μM final concentration, and phosphonoacetic acid (PAA) at 400 μg/ml (both from Sigma-Aldrich, St. Louis, Mo.). Chk2 inhibitor II was dissolved in DMSO such that the final concentration of DMSO in both Chk2 inhibitor II and mock treatment was 0.1%. […]

HSV-1 [2] = experiment: HSV-1 replication (relative genome level) in normal and cancer cell lines; type: cell-based; details: KU-55933 10 μM
Experimental: All cells were cultured at 37° C. and 5% CO2, and supplemented with 100 U/ml penicillin and 100 μg/ml streptomycin. hTCEpi human corneal epithelial cells were cultured in KGM-2 (Lonza, Basel, Switzerland). HCE human corneal epithelial cells were cultured in DMEM/F-12 supplemented with 10% FBS. EPC2 human esophageal epithelial cells were cultured in KSFM (Carlsbad, Calif.). OKF6 human oral epithelial cells were cultured in KSFM. E5 cells, which are CV-1 cells stably expressing HSV-1 ICP4 protein, were cultured in DMEM supplemented with 10% FBS. HEK293 human embryonic kidney epithelial cells, HeLa human cervical adenocarcinoma cells, U2OS human osteosarcoma cells, H1299 human lung carcinoma cells, and SH-SY5Y human neuroblastoma cells were all obtained from American Type Culture Collection and cultured in DMEM supplemented with 10% FBS.
Total DNA was isolated from infected cells using the DNeasy Blood & Tissue Kit (QIAGEN, Hilden, Germany). Real time quantitative PCR was performed with SYBR Green (Bio-Rad, Hercules, Calif.). Target primers for UL30 (DNA polymerase catalytic subunit) and reference primers for GAPDH were used to measure genome replication. Primer sequences were provided in Alekseev et al., 2014, Invest. Ophthalm. Vis. Sci. 55:706-715). Real time PCR data were processed using the ΔΔC(t) method. […]

human corneas = type: cell-based
Experimental: Human corneas were obtained from the Lions Eye Bank of Delaware Valley. Rabbit corneas were excised from intact fresh eyeballs of young (8-12 weeks) albino rabbits (Pel-Freez Biologicals, Rogers, Ark.). Protocol (Alekseev et al., 2012, J Vis Exp 69:e3631) for ex vivo corneal culture, infection, and treatment was followed closely. Briefly, corneoscleral buttons were excised and rinsed in PBS containing 200 U/mL penicillin and 200 μg/mL streptomycin. The endothelial concavity was filled with culture medium containing 1% low melting temperature agarose. The corneas were cultured epithelial side up in MEM medium supplemented with nonessential amino acids (1×), 2 mM […], 200 U/mL penicillin, and 200 μg/mL streptomycin. The next day, they were infected with 1×10^4 plaque forming units (PFU)/cornea of strain KOS HSV-1 for 1 hour, rinsed, and overlaid with fresh medium. Drug treatments were administered at the same concentrations as for cultured cells. For KU-55933 bioavailability assessment, corneas were treated with bleomycin (200 μg/mL) for 1 hour. The epithelial cell layer was collected by scraping to isolate DNA or protein. […] Treatment toxicity was assessed by briefly staining the cornea with fluorescein (1% wt/vol in PBS) and imaging the epithelial defects with 464-nm wavelength blue light (LDP LLC, Carlstadt, N.J.).

| Structure (SMILES) | generation of infectious viral particles (plaque assay) (HSV-1 [1]) | HSV-1 replication in transformed or cancer cell lines (HSV-1 [2]; HeLa, U2OS, H1299, SH-SY5Y) | HSV-1 replication in normal cell types (HSV-1 [2]; hTCEpi, HCE, OKF6, EPC2) | surface defects of explanted human corneas (human corneas) |
| --- | --- | --- | --- | --- |
| NC(=O)c1ccc2[nH]c(-c3ccc(Oc4ccc(Cl)cc4)cc3)nc2c1 [Chk2 inhibitor II, 2-(4-(4-chlorophenoxy)phenyl)-1H-benzimidazole-5-carboxamide] | reduction | – | – | – |
| O=c1cc(-c2cccc3c2Sc2ccccc2S3)oc(N2CCOCC2)c1 [KU-55933, 2-(morpholin-4-yl)-6-(thianthren-1-yl)-pyran-4-one] | – | little effect | potently suppressed | did not develop any surface defects |
